{"source": "patent US8420598B2", "about": "“Mono modified exendin with polyethylene glycol or its derivatives and uses thereof” (B & L Delipharm Corp., priority 2007, dated 2013)", "key": {"db/db mice [1]": {"tested_on": "db/db mice", "assay": "Animal model test: oral glucose tolerance after s.c. injection", "format": "in vivo", "settings": "1 nmol/kg s.c. 30 min before oral glucose, FIG. 8", "description": "30 min before, at the time of, and 15, 30, 60, 120 and 180 min after the oral administration of glucose, blood samples were taken from the tail vein and monitored for glucose level."}, "[2]": {"tested_on": "pancreatic islet cells of Sprague Dawley rats", "assay": "Assay for promoting insulin secretion (insulin ELISA)", "format": "cell-based", "settings": "for pEC50 / insulin secretory capacity: rat islet cells, 0.1-100 nM; for pEC50: 16.7 mM glucose, 2 hours; for insulin secretory capacity: FIG. 5", "description": "Cells used for this assay were pancreatic islet cells of Sprague Dawley rats, which could be isolated by collagenase digestion and then Ficoll gradient centrifugation. After being cultured for 2˜3 days in an incubator, the isolated pancreatic islet cells were suspended in 1 ml of KRH buffer (16.7 mM glucose) at a density of 20 cells per well into 24-well plates. […] Then, […] of the culture was taken from each well and analyzed for insulin level using an insulin ELISA kit."}, "db/db mice [3]": {"tested_on": "db/db mice", "assay": "Measurement of anti-diabetic activity in animals (blood glucose monitoring)", "format": "in vivo", "settings": "for time blood glucose kept at normal levels (<150 mg/dL) after injection: s.c., same dosage, db/db mice"}, "[4]": {"settings": "rat, in vivo, iv"}, "[5]": {"settings": "rat, in vivo, sc", "procedure": "SD rats weighing 200 g were subcutaneously injected with samples at a dose of 1 nmol/rat (4.18 μg/rat), followed by sampling blood through a tube inserted into the jugular vein. The blood samples were monitored for drug level using an ELISA kit."}}, "note": "pEC50: −log10 of the molar value. Where two headings read alike, the source gives them in different places.", "data": [{"substance": "N^ter-PEG2k-exendin-4: exendin-4 modified at the N-terminus with 2 kDa mPEG-propionaldehyde, Example 1", "values": [{"measurement": "activity by area under the glucose curve 0 to 180 min", "setting": "db/db mice [1]", "value": "low effects"}, {"measurement": "pEC50", "setting": "[2]", "value": 6.87}, {"measurement": "insulin secretory capacity", "setting": "[2]", "value": "low insulin secretory capacity"}]}, {"substance": "PEG23k-Exendin-4 (tri-branched): exendin-4 modified at lysine-27 with 23 kDa tri-branched PEG, Example 3", "values": [{"measurement": "duration of medicinal efficacy", "setting": "db/db mice [3]; dose of 5 nmol/kg", "value": "12 to 18", "unit": "h"}, {"measurement": "duration of medicinal efficacy", "setting": "db/db mice [3]; dose of 10 nmol/kg", "value": "36 to 48", "unit": "h"}, {"measurement": "duration of medicinal efficacy", "setting": "db/db mice [3]; dose of 20 nmol/kg", "value": "72 to 96", "unit": "h"}, {"measurement": "duration of useful medicinal effects", "setting": "db/db mice [3]; dose of 50 nmol/kg", "value": "≤ 120", "unit": "h"}, {"measurement": "promotion of insulin secretion, dose dependence", "setting": "[2]; 0.1, 1, 10 and 100 nM, FIG. 16", "value": "promote insulin secretion in a dose-dependent manner"}, {"measurement": "AUC", "setting": "[4]", "value": "7659 ± 1365", "unit": "ng·h/mL"}, {"measurement": "Elimination Half Life", "setting": "[4]", "value": "25.1 ± 9.1", "unit": "h"}, {"measurement": "Volume of Distribution", "setting": "[4]", "value": "9.41 ± 1.57", "unit": "mL"}]}, {"substance": "PEG10k-exendin-4: exendin-4 modified at lysine-27 with 10 kDa mPEG-SPA, Example 2", "values": [{"measurement": "time blood glucose kept at normal levels (<150 mg/dL) after injection", "setting": "db/db mice [3]", "value": 18, "unit": "h"}]}, {"substance": "PEG20k-exendin-4: exendin-4 modified at lysine-27 with 20 kDa mPEG-SPA, Example 2", "values": [{"measurement": "time blood glucose kept at normal levels (<150 mg/dL) after injection", "setting": "db/db mice [3]", "value": "about 36 hours"}, {"measurement": "Elimination Half Life", "setting": "[5]", "value": "22.0 ± 1.7", "unit": "h"}, {"measurement": "residual activity (insulin secretion)", "setting": "[2]; 10 nM, relative to natural exendin-4, FIG. 9", "value": "≥ 40", "unit": "%"}]}, {"substance": "PEG20k-Exendin-4 (bi-branched): exendin-4 modified with 20 kDa bi-branched PEG, Example 3", "values": [{"measurement": "time blood glucose kept at normal levels (<150 mg/dL) after injection", "setting": "db/db mice [3]", "value": "about 8 hours"}, {"measurement": "AUC", "setting": "[4]", "value": "5717 ± 1015", "unit": "ng·h/mL"}, {"measurement": "Elimination Half Life", "setting": "[4]", "value": "28.0 ± 10.4", "unit": "h"}, {"measurement": "Volume of Distribution", "setting": "[4]", "value": "25.45 ± 16.84", "unit": "mL"}]}, {"substance": "PEG5k-exendin-4: exendin-4 modified at lysine-27 with 5 kDa mPEG-SPA, Example 2", "values": [{"measurement": "time blood glucose kept at normal levels (<150 mg/dL) after injection", "setting": "db/db mice [3]", "value": 12, "unit": "h"}]}, {"substance": "Lys^27-PEG2k-exendin-4: exendin-4 modified at lysine-27 with 2 kDa PEG (mPEG-SPA), Example 2", "values": [{"measurement": "time blood glucose kept at normal levels (<150 mg/dL) after injection", "setting": "db/db mice [3]", "value": "about 6 hours"}, {"measurement": "activity by area under the glucose curve 0 to 180 min", "setting": "db/db mice [1]", "value": "activity similar to that of natural exendin-4"}, {"measurement": "time to reach basal line (<2 ng/mL) after administration", "setting": "[5]", "value": 4, "unit": "h"}, {"measurement": "pEC50", "setting": "[2]", "value": 8.51}, {"measurement": "insulin secretory capacity", "setting": "[2]", "value": "superior to that of the other modified exendin-4, and similar to that of natural exendin-4"}]}]}
